Measured values: PubChem BioAssay (NCI)
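These data come from cells grown in 96-well plates and exposed to compound for 48 hours at five concentrations. GI50 marks 50% less growth. TGI is the concentration that stops growth completely.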

These compounds were tested on M14 melanoma (assay: growth of human tumour cells (NCI), 48 h).

SMILES	TGI	GI50
COC(=O)c1s/c(=N\C(=S)N(C)C)n(-c2ccc(Cl)cc2)c1C(=O)OC	> 100 µM	–
COC1CCCCN1C(=O)c1ccccc1 (stereo not drawn)	> 25.3 µM	–
O=C(O)CCSC(CC1(c2ccc(Cl)cc2)NC(=O)CCS1)c1ccccc1 (stereo not drawn)	50.9 µM	–
C=C1C(=O)OC2CC(C)C(C(O)CC(C)O)=CCC12 (stereo not drawn)	35 µM	–
O=c1nc(N2CCNCC2)oc2cc(Cl)oc(=O)c12	7.94 µM	–
COc1ccc(C2=C(c3ccc(OC)cc3)C(=O)N3CCCC3C2)cc1 (stereo not drawn)	> 100 µM	28 µM

The compounds below were run on IGROV1 ovarian (assay: growth of human tumour cells (NCI), 48 h).

SMILES	TGI	GI50
COC(=O)c1s/c(=N\C(=S)N(C)C)n(-c2ccc(Cl)cc2)c1C(=O)OC	> 10 µM	–
COC1CCCCN1C(=O)c1ccccc1 (stereo not drawn)	> 25.3 µM	–
O=C(O)CCSC(CC1(c2ccc(Cl)cc2)NC(=O)CCS1)c1ccccc1 (stereo not drawn)	31.7 µM	–
C=C1C(=O)OC2CC(C)C(C(O)CC(C)O)=CCC12 (stereo not drawn)	43.4 µM	–
O=c1nc(N2CCNCC2)oc2cc(Cl)oc(=O)c12	16.6 µM	–
COc1ccc(C2=C(c3ccc(OC)cc3)C(=O)N3CCCC3C2)cc1 (stereo not drawn)	> 100 µM	18.1 µM

These compounds were tested on DU-145 prostate (assay: growth of human tumour cells (NCI), 48 h).

SMILES	TGI	GI50
O=C(O)CCSC(CC1(c2ccc(Cl)cc2)NC(=O)CCS1)c1ccccc1 (stereo not drawn)	> 53.8 µM	–
C=C1C(=O)OC2CC(C)C(C(O)CC(C)O)=CCC12 (stereo not drawn)	30.4 µM	–
O=c1nc(N2CCNCC2)oc2cc(Cl)oc(=O)c12	21.8 µM	–
COc1ccc(C2=C(c3ccc(OC)cc3)C(=O)N3CCCC3C2)cc1 (stereo not drawn)	> 100 µM	13.5 µM

Each compound was assayed on HL-60(TB) leukemia (assay: growth of human tumour cells (NCI), 48 h).

SMILES	TGI	GI50
COC(=O)c1s/c(=N\C(=S)N(C)C)n(-c2ccc(Cl)cc2)c1C(=O)OC	> 100 µM	–
COC1CCCCN1C(=O)c1ccccc1 (stereo not drawn)	> 25.3 µM	–
O=C(O)CCSC(CC1(c2ccc(Cl)cc2)NC(=O)CCS1)c1ccccc1 (stereo not drawn)	> 100 µM	–
C=C1C(=O)OC2CC(C)C(C(O)CC(C)O)=CCC12 (stereo not drawn)	13.5 µM	–
O=c1nc(N2CCNCC2)oc2cc(Cl)oc(=O)c12	8.47 µM	–
COc1ccc(C2=C(c3ccc(OC)cc3)C(=O)N3CCCC3C2)cc1 (stereo not drawn)	28.4 µM	4.36 µM

The compounds below were run on PC-3 prostate (assay: growth of human tumour cells (NCI), 48 h).

SMILES	TGI	GI50
O=C(O)CCSC(CC1(c2ccc(Cl)cc2)NC(=O)CCS1)c1ccccc1 (stereo not drawn)	37.3 µM	–
C=C1C(=O)OC2CC(C)C(C(O)CC(C)O)=CCC12 (stereo not drawn)	57 µM	–
O=c1nc(N2CCNCC2)oc2cc(Cl)oc(=O)c12	19.9 µM	–
COc1ccc(C2=C(c3ccc(OC)cc3)C(=O)N3CCCC3C2)cc1 (stereo not drawn)	> 100 µM	12.4 µM

Each compound was assayed on U251 CNS (assay: growth of human tumour cells (NCI), 48 h).

SMILES	TGI	GI50
COC(=O)c1s/c(=N\C(=S)N(C)C)n(-c2ccc(Cl)cc2)c1C(=O)OC	> 100 µM	–
COC1CCCCN1C(=O)c1ccccc1 (stereo not drawn)	> 25.3 µM	–
O=C(O)CCSC(CC1(c2ccc(Cl)cc2)NC(=O)CCS1)c1ccccc1 (stereo not drawn)	42.2 µM	–
C=C1C(=O)OC2CC(C)C(C(O)CC(C)O)=CCC12 (stereo not drawn)	39.4 µM	–
O=c1nc(N2CCNCC2)oc2cc(Cl)oc(=O)c12	16 µM	–
COc1ccc(C2=C(c3ccc(OC)cc3)C(=O)N3CCCC3C2)cc1 (stereo not drawn)	> 100 µM	5.99 µM

Each compound was assayed on HCT-15 colon (assay: growth of human tumour cells (NCI), 48 h).

SMILES	TGI	GI50
COC(=O)c1s/c(=N\C(=S)N(C)C)n(-c2ccc(Cl)cc2)c1C(=O)OC	> 100 µM	–
COC1CCCCN1C(=O)c1ccccc1 (stereo not drawn)	> 25.3 µM	–
O=C(O)CCSC(CC1(c2ccc(Cl)cc2)NC(=O)CCS1)c1ccccc1 (stereo not drawn)	32.1 µM	–
C=C1C(=O)OC2CC(C)C(C(O)CC(C)O)=CCC12 (stereo not drawn)	41.4 µM	–
O=c1nc(N2CCNCC2)oc2cc(Cl)oc(=O)c12	15 µM	–
COc1ccc(C2=C(c3ccc(OC)cc3)C(=O)N3CCCC3C2)cc1 (stereo not drawn)	> 55.7 µM	0.733 µM

What follows are compounds tested on SF-295 CNS (assay: growth of human tumour cells (NCI), 48 h).

SMILES	TGI
COC(=O)c1s/c(=N\C(=S)N(C)C)n(-c2ccc(Cl)cc2)c1C(=O)OC	> 100 µM
O=C(O)CCSC(CC1(c2ccc(Cl)cc2)NC(=O)CCS1)c1ccccc1 (stereo not drawn)	43.2 µM
C=C1C(=O)OC2CC(C)C(C(O)CC(C)O)=CCC12 (stereo not drawn)	> 100 µM
